Measurements reported in ChEMBL document CHEMBL4190365, “Synthesis and antiproliferative properties of new hydrophilic esters of triterpenic acids” (Eur J Med Chem, 2017).

Columns and labels:
Assay type in all cases: functional, cell-based
CCRF-CEM = experiment: Cytotoxicity in human CEM cells assessed as reduction in cell viability incubated for 72 hrs by calcein AM cytotoxicity assay
MCF7 = experiment: Cytotoxicity in human MCF7 cells assessed as reduction in cell viability incubated for 72 hrs by calcein AM cytotoxicity assay
HeLa = experiment: Cytotoxicity in human HeLa cells assessed as reduction in cell viability incubated for 72 hrs by calcein AM cytotoxicity assay
G-361 = experiment: Cytotoxicity in human G361 cells assessed as reduction in cell viability incubated for 72 hrs by calcein AM cytotoxicity assay
BJ = experiment: Cytotoxicity in human BJ cells assessed as reduction in cell viability incubated for 72 hrs by calcein AM cytotoxicity assay

| Structure (SMILES) | IC50 (CCRF-CEM; Homo sapiens, CCRF-CEM, 72 h) [µM] | IC50 (MCF7; Homo sapiens, MCF7, 72 h) [µM] | IC50 (HeLa; Homo sapiens, HeLa, 72 h) [µM] | IC50 (G-361; Homo sapiens, G-361, 72 h) [µM] | IC50 (BJ; Homo sapiens, BJ, 72 h) [µM] | IC50 (MCF7; mcf7) [µM] | IC50 (G-361; g-361) [µM] | IC50 (BJ; bj) [µM] | IC50 (HeLa; hela) [µM] | IC50 (CCRF-CEM; ccrf-cem) [µM] |
| --- | --- | --- | --- | --- | --- | --- | --- | --- | --- | --- |
| CC(=O)OC[C@H]1O[C@@H](OC(=O)[C@@]23CC[C@]4(C)[C@H](CC[C@@H]5[C@@]6(C)CC[C@H](OC(C)=O)C(C)(C)[C@@H]6CC[C@]54C)C2=C(C(C)C)C(=O)C3)[C@H](OC(C)=O)[C@@H](OC(C)=O)[C@H]1OC(C)=O | 4.5 | 3.7 | 44.3 | 3.1 | 31.8 |  |  |  |  |  |
| COCCOC(=O)[C@@]12CC[C@]3(C)[C@H](CC[C@@H]4[C@@]5(C)CC[C@H](OC(C)=O)C(C)(C)[C@@H]5CC[C@]43C)C1=C(C(C)C)C(=O)C2 | 17.8 | 42.5 | > 50 | 19.9 | > 50 |  |  |  |  |  |
| C=C(C)[C@@H]1CC[C@]2(C(=O)OCCOCCOC)CC[C@]3(C)[C@H](CC[C@@H]4[C@@]5(C)CC[C@H](O)C(C)(C)[C@@H]5CC[C@]43C)[C@@H]12 | 30.7 | 36.4 | 14.5 | 26.9 | > 50 |  |  |  |  |  |
| C=C(C)[C@@H]1CC[C@]2(C(=O)OCCOC)CC[C@]3(C)[C@H](CC[C@@H]4[C@@]5(C)CC[C@H](O)C(C)(C)[C@@H]5CC[C@]43C)[C@@H]12 | 32.8 | 35.2 | 32.4 | 30.3 | 43.7 |  |  |  |  |  |
| COCCOC(=O)[C@]1(COC(C)=O)CC[C@]2(C)[C@H](CC[C@@H]3[C@@]4(C)CC[C@H](OC(C)=O)C(C)(C)[C@@H]4CC[C@]32C)C1=O | > 50 | > 50 | > 50 | > 50 | > 50 |  |  |  |  |  |
| COCCOCCOC(=O)[C@@]12CC[C@]3(C)[C@H](CC[C@@H]4[C@@]5(C)CC[C@H](OC(C)=O)C(C)(C)[C@@H]5CC[C@]43C)C1=C(C(C)C)C(=O)C2 | 17.6 | 21.9 | 17.1 | 11.8 | > 50 |  |  |  |  |  |
| C=C(C)[C@@H]1CC[C@]2(C(=O)OCC(=O)OCc3ccccc3)CC[C@]3(C)[C@H](CC[C@@H]4[C@@]5(C)CC[C@H](O)C(C)(C)[C@@H]5CC[C@]43C)[C@@H]12 | 21.9 | > 50 | > 50 | 22.2 | > 50 |  |  |  |  |  |
| CC(C)[C@@H]1CC[C@]2(C(=O)OCC(=O)OCc3ccccc3)CC[C@]3(C)[C@H](CC[C@@H]4[C@@]5(C)CC[C@H](O)C(C)(C)[C@@H]5CC[C@]43C)[C@@H]12 | 24.1 | > 50 | > 50 | > 50 | > 50 |  |  |  |  |  |
| CC(=O)O[C@H]1CC[C@]2(C)[C@H]3CC[C@@H]4C5=C(C(C)C)C(=O)C[C@]5(C(=O)OCC(=O)O)CC[C@@]4(C)[C@]3(C)CC[C@H]2C1(C)C | 24.2 | > 50 | 47.9 | 45.6 | > 50 |  |  |  |  |  |
| CC(=O)OC[C@@]1(C(=O)OCC(=O)O)CC[C@]2(C)[C@H](CC[C@@H]3[C@@]4(C)CC[C@H](OC(C)=O)C(C)(C)[C@@H]4CC[C@]32C)C1=O | 32.4 | > 50 | > 50 | > 50 | 7 |  |  |  |  |  |
| CC(=O)OC[C@H]1O[C@@H](OC(=O)[C@]2(COC(C)=O)CC[C@]3(C)[C@H](CC[C@@H]4[C@@]5(C)CC[C@H](OC(C)=O)C(C)(C)[C@@H]5CC[C@]43C)[C@@H]2O)[C@H](OC(C)=O)[C@@H](OC(C)=O)[C@@H]1OC(C)=O | > 50 | > 50 | > 50 | > 50 | 43 |  |  |  |  |  |
| CC(=O)OC[C@H]1O[C@@H](OC(=O)[C@]2(COC(C)=O)CC[C@]3(C)[C@H](CC[C@@H]4[C@@]5(C)CC[C@H](OC(C)=O)C(C)(C)[C@@H]5CC[C@]43C)[C@@H]2O)[C@H](OC(C)=O)[C@@H](OC(C)=O)[C@H]1OC(C)=O | > 50 | > 50 | > 50 | > 50 | > 50 |  |  |  |  |  |
| COCCOCCOC(=O)[C@]1(COC(C)=O)CC[C@]2(C)[C@H](CC[C@@H]3[C@@]4(C)CC[C@H](OC(C)=O)C(C)(C)[C@@H]4CC[C@]32C)C1=O | > 50 | > 50 | > 50 | > 50 | > 50 |  |  |  |  |  |
| COCCOC(=O)[C@]12CC[C@@H](C(C)C)[C@@H]1[C@H]1CC[C@@H]3[C@@]4(C)CC[C@H](O)C(C)(C)[C@@H]4CC[C@@]3(C)[C@]1(C)CC2 | 38.4 | 44.4 | 21.5 | 38.6 | 26.5 |  |  |  |  |  |
| CC(=O)OC[C@@]1(C(=O)OCCBr)CC[C@]2(C)[C@H](CC[C@@H]3[C@@]4(C)CC[C@H](OC(C)=O)C(C)(C)[C@@H]4CC[C@]32C)[C@@H]1O | > 50 | > 50 | > 50 | > 50 | > 50 |  |  |  |  |  |
| C=C(C=O)[C@@H]1CC[C@]2(C(=O)OCCN3CCOCC3)CC[C@]3(C)[C@H](CC[C@@H]4[C@@]5(C)CC[C@H](O)C(C)(C)[C@@H]5CC[C@]43C)[C@@H]12 | 3.8 | 2.2 | 11 | 5.3 | 19.2 |  |  |  |  |  |
| CC(C)[C@@H]1CC[C@]2(C(=O)OCCN3CCCCC3)CC[C@]3(C)[C@H](CC[C@@H]4[C@@]5(C)CC[C@H](O)C(C)(C)[C@@H]5CC[C@]43C)[C@@H]12 | 26.7 |  |  |  |  | 26.1 | 29.9 | 46.5 |  |  |
| C=C(C)[C@@H]1CC[C@]2(C(=O)OCCN3CCOCC3)CC[C@]3(C)[C@H](CC[C@@H]4[C@@]5(C)CC[C@H](O)C(C)(C)[C@@H]5CC[C@]43C)[C@@H]12 [listing 1 of 2 here] |  | > 50 | 50 | > 50 | > 50 |  |  |  |  |  |
| CC(=O)OC[C@@]1(C(=O)OCCN2CCCCC2)CC[C@]2(C)[C@H](CC[C@@H]3[C@@]4(C)CC[C@H](OC(C)=O)C(C)(C)[C@@H]4CC[C@]32C)[C@@H]1O | > 50 | 27.2 | > 50 | > 50 | > 50 |  |  |  |  |  |
| CC(=O)OC[C@@]1(C(=O)OCCBr)CC[C@]2(C)[C@H](CC[C@@H]3[C@@]4(C)CC[C@H](OC(C)=O)C(C)(C)[C@@H]4CC[C@]32C)C1=O | > 50 | > 50 | > 50 | > 50 | > 50 |  |  |  |  |  |
| CC(=O)O[C@H]1CC[C@]2(C)[C@H]3CC[C@@H]4C5=C(C(C)C)C(=O)C[C@]5(C(=O)O[C@@H]5O[C@H](CO)[C@H](O)[C@H](O)[C@H]5O)CC[C@@]4(C)[C@]3(C)CC[C@H]2C1(C)C | 18.8 | 37 | 38.8 | 42.7 | 48.2 |  |  |  |  |  |
| CC(=O)O[C@H]1CC[C@]2(C)[C@H]3CC[C@@H]4C5=C(C(C)C)C(=O)C[C@]5(C(=O)OCCN5CCOCC5)CC[C@@]4(C)[C@]3(C)CC[C@H]2C1(C)C | 12.6 | 14.5 | 16.1 | 7 | 42.5 |  |  |  |  |  |
| C=C(C)[C@@H]1CC[C@]2(C(=O)OCC(=O)O)CC[C@]3(C)[C@H](CC[C@@H]4[C@@]5(C)CC[C@H](O)C(C)(C)[C@@H]5CC[C@]43C)[C@@H]12 | > 50 | > 50 | > 50 | > 50 | > 50 |  |  |  |  |  |
| CC(=O)O[C@H]1CC[C@]2(C)[C@H]3CC[C@@H]4C5=C(C(C)C)C(=O)C[C@]5(C(=O)OCCN5CCCCC5)CC[C@@]4(C)[C@]3(C)CC[C@H]2C1(C)C | 21.2 |  |  |  |  | 5.8 | 7.2 | 44.6 | 9.1 |  |
| CC(=O)OC[C@H]1O[C@@H](OC(=O)[C@@]23CC[C@]4(C)[C@H](CC[C@@H]5[C@@]6(C)CC[C@H](OC(C)=O)C(C)(C)[C@@H]6CC[C@]54C)C2=C(C(C)C)C(=O)C3)[C@H](OC(C)=O)[C@@H](OC(C)=O)[C@@H]1OC(C)=O | 9.1 | 3.8 | 9.8 | 4.3 | > 50 |  |  |  |  |  |
| C=C(C)[C@@H]1CC[C@]2(C(=O)O[C@@H]3O[C@H](CO)[C@H](O)[C@H](O)[C@H]3O)CC[C@]3(C)[C@H](CC[C@@H]4[C@@]5(C)CC[C@H](O)C(C)(C)[C@@H]5CC[C@]43C)[C@@H]12 | > 50 | > 50 | > 50 | > 50 | > 50 |  |  |  |  |  |
| CC(=O)O[C@H]1CC[C@]2(C)[C@H]3CC[C@@H]4C5=C(C(C)C)C(=O)C[C@]5(C(=O)OCCN5CCCC5)CC[C@@]4(C)[C@]3(C)CC[C@H]2C1(C)C | 13.3 | 7.3 | 7.7 | 6.5 | 19.1 |  |  |  |  |  |
| C=C(C)[C@@H]1CC[C@]2(C(=O)OCCN3CCCC3)CC[C@]3(C)[C@H](CC[C@@H]4[C@@]5(C)CC[C@H](O)C(C)(C)[C@@H]5CC[C@]43C)[C@@H]12 [listing 1 of 2 here] |  | 19.9 | 8.5 | 11.6 | 23.1 |  |  |  |  | 5 |
| C=C(C)[C@@H]1CC[C@]2(C(=O)OCCN3CCCC3)CC[C@]3(C)[C@H](CC[C@@H]4[C@@]5(C)CC[C@H](O)C(C)(C)[C@@H]5CC[C@]43C)[C@@H]12 [listing 2 of 2 here] |  |  |  |  |  | 14.3 | 7.1 | 15.5 |  | 2.3 |
| C=C(C)[C@@H]1CC[C@]2(C(=O)OCCN3CCOCC3)CC[C@]3(C)[C@H](CC[C@@H]4[C@@]5(C)CC[C@H](O)C(C)(C)[C@@H]5CC[C@]43C)[C@@H]12 [listing 2 of 2 here] | > 50 |  |  |  |  |  |  |  | > 50 |  |
